Data from patent US20220401390A1, “TREATMENTS OF DIABETIC MACULAR EDEMA AND IMPAIRED VISUAL ACUITY” (KALVISTA PHARMACEUTICALS LIMITED, priority 2019, published 2022).

Assays:
[1] = tested on: subjects with ciDME who have had prior anti-VEGF treatment; assay: Study 2: sham-controlled monthly intravitreal injections, BCVA (ETDRS) efficacy; assay type: in vivo, human; design: BCVA (letters): any loss from baseline, Diff. v. sham / BCVA: ≥5 letter loss from baseline, Diff. v. sham / BCVA: ≥10 letter loss from baseline, Diff. v. sham / BCVA: ≥15 letter loss from baseline, Diff. v. sham: unit not given here; details: for BCVA: ≥10 letter loss from baseline, Diff. v. sham / BCVA: ≥15 letter loss from baseline, Diff. v. sham / BCVA (letters): any loss from baseline, Diff. v. sham / BCVA: ≥5 letter loss from baseline, Diff. v. sham: week 16
From the text: To investigate monthly dosing of intravitreal (IVT) injection of the compound of Formula A in subjects with ciDME who have had prior anti-VEGF treatment. In particular, to evaluate any effect on the efficacy in the treatment, prevention, or prevention of worsening of ciDME in subjects who have had prior anti-VEGF treatment.
This study was a randomized, sham-controlled, double-masked, 3-arm study into efficacy, safety and tolerability of monthly intravitreal injections of the compound of Formula A as a monotherapy in adult subjects with ciDME. The subjects had all had prior anti-VEGF treatment.
129 adult subjects were chosen using the following inclusion criteria: • 1. Male or female adult subjects 18 years of age and older. • 2. Confirmed diagnosis of Type I or Type II diabetes mellitus (DM). Any of the following were sufficient: • a. Current regular use of insulin for the treatment of diabetes • b. Current regular use of oral anti-hyperglycemia agents for the treatment of diabetes • c. Documented diabetes by American Diabetes Association and/or World Health Organization (VVHO) criteria. • 3. Best Corrected Visual Acuity (BCVA), using Standard Early Treatment Diabetic Retinopathy Study (ETDRS) chart, of ≥19 letters (˜20/400) and ≤73 letters (˜20/40) in the study eye and ≥34 letters (˜20/200 or better) in the fellow eye at Screening and Day 1. • 4. Presence of ciDME in the study eye defined as Heidelberg Spectralis Optical Coherence Tomography (SD-OCT) CST ≥305 μm in women and ≥320 μm in men in the study eye (as assessed at Screening by the Investigator and Central Image Reading Center (CIRC) and on Day 1 by the Investigator). • 5. Subjects' first anti-VEGF injection in the study eye occurred 36 months prior to Day 1. • 6. Subjects received at least 3 anti-VEGF injections in the study eye within a 6-month period within the 36 months prior to Day 1. • 7. Subject's' last anti-VEGF injection in the study eye was 8 weeks prior to Day 1. • 8. Subjects, who in the view of the Investigator, were able to defer treatment in the study eye for at least 6 months following Day 1. • 9. […] Provide signed informed consent and were willing and capable of complying with clinic visits and study procedures.
The 129 eligible subjects were randomized approximately 1:1:1 into three arms: • 1. Arm 1, N=44: • Received injections of 3 μg/eye (100 μL injection volume at a concentration of 30 μg/mL) of the compound of formula A; • 2. Arm 2, N=41: • Received injections of 6 μg/eye (100 μL injection volume at a concentration of 60 μg/mL) of the compound of formula A; and • 3. Arm 3, N=44: • Received a sham procedure; during a 12-week, double-masked treatment period (a total of 4 doses given at approximately monthly intervals).
Subjects visited the study clinic on Day 1 and Weeks 4, 8, and 12 during the Treatment Phase for study drug administration or sham procedure, safety, and ophthalmic assessments.
The ophthalmic assessments were carried out in approximately the following order at the subjects' visits to the study clinic on Day 1, and Weeks 4, 8 and 12: • BCVA (must be performed prior to all other ophthalmic procedures) • Slit lamp biomicroscopy • Pre-Injection IOP/IOP at visits with no study drug administration (must be done prior to dilation) • Dilated indirect ophthalmoscopy • Fundus photography • SD-OCT • Intravitreal injection • Post-Injection IOP
All subjects visited the clinic at Weeks 16, 20, and 24 after the last study drug administration or sham procedure for safety and ophthalmic assessments. The visit window for Weeks 16, 20, and 24 is ±7 days.
The assessment measured change from baseline in BCVA letter count in the study eye at Week 16. Change from baseline in BCVA letter count is calculated as Week 16 BCVA letter count minus Day 1 BCVA letter count such that a negative difference indicates a worsening in vision. […]

[2] = tested on: subjects with center involved diabetic macular edema; assay: Study 1: pharmacodynamic effect (visual acuity, retinal thickness); assay type: in vivo, human; details: Day 84, 10 μg dose

## CCOc1ccc(C[C@@H](NC(=O)c2ccccc2)C(=O)N[C@@H](Cc2ccccc2)C(=O)NCc2ccc(CN)cc2)cc1 [compound of Formula A, N—[(R)-1-[(S)-1-(4-Aminomethyl-benzylcarbamoyl)-2-phenyl-ethylcarbamoyl]-2-(4-ethoxy-phenyl)-ethyl]-benzamide]
[1]; 3 μg, 4 weeks, positive value is improvement
  BCVA improvement (letters), change versus sham, mean: 0.6 letters
[1]; 3 μg, 8 weeks, positive value is improvement
  BCVA improvement (letters), change versus sham, mean: 1.2 letters
[1]; 3 μg, 12 weeks, positive value is improvement
  BCVA improvement (letters), change versus sham, mean: 3.8 letters
[1]; 3 μg, 16 weeks, positive value is improvement
  BCVA improvement (letters), change versus sham, mean: 1.5 letters
[1]; 3 μg, 20 weeks, positive value is improvement
  BCVA improvement (letters), change versus sham, mean: −1.2 letters
[1]; 3 μg, 24 weeks, positive value is improvement
  BCVA improvement (letters), change versus sham, mean: −0.7 letters
[1]; 3 μg, week 16, n = 44
  BCVA (letters): any loss from baseline, (%): (50.0) %
  BCVA: ≥5 letter loss from baseline, (%): (25.0) %
  BCVA: ≥10 letter loss from baseline, (%): (9.1) %
  BCVA: ≥15 letter loss from baseline, (%): (4.5) %
[1]; 3 μg, p-value 0.228
  BCVA: ≥10 letter loss from baseline, Diff. v. sham: −11.4
[1]; 3 μg, p-value 0.4336
  BCVA: ≥15 letter loss from baseline, Diff. v. sham: −6.8
[1]; 3 μg, p-value 0.6695
  BCVA (letters): any loss from baseline, Diff. v. sham: −4.5
[1]; 3 μg, p-value 0.8083
  BCVA: ≥5 letter loss from baseline, Diff. v. sham: −2.3
[1]; 6 μg doses, through to the 24 week time period
  Improvement in BCVA (letters) score compared to sham after the treatment period (in words): maintained
[1]; 6 μg, all subjects, 4 weeks, positive value is improvement
  BCVA improvement (letters), change versus sham, mean: 0.9 letters
[1]; 6 μg, all subjects, 8 weeks, positive value is improvement
  BCVA improvement (letters), change versus sham, mean: 1.1 letters
[1]; 6 μg, all subjects, 12 weeks, positive value is improvement
  BCVA improvement (letters), change versus sham, mean: 2.9 letters
[1]; 6 μg, all subjects, 16 weeks, positive value is improvement
  BCVA improvement (letters), change versus sham, mean: 2.6 letters
[1]; 6 μg, all subjects, 20 weeks, positive value is improvement
  BCVA improvement (letters), change versus sham, mean: 2.0 letters
[1]; 6 μg, all subjects, 24 weeks, positive value is improvement
  BCVA improvement (letters), change versus sham, mean: 2.1 letters
[1]; 6 μg, early stage subjects (baseline BCVA >55 letters), 4 weeks
  BCVA improvement (letters), change versus sham, mean: 2.3 letters
[1]; 6 μg, early stage subjects (baseline BCVA >55 letters), 8 weeks
  BCVA improvement (letters), change versus sham, mean: 1.8 letters
[1]; 6 μg, early stage subjects (baseline BCVA >55 letters), 12 weeks
  BCVA improvement (letters), change versus sham, mean: 4.7 letters
[1]; 6 μg, early stage subjects (baseline BCVA >55 letters), 16 weeks
  BCVA improvement (letters), change versus sham, mean: 4.9 letters
[1]; 6 μg, early stage subjects (baseline BCVA >55 letters), 20 weeks
  BCVA improvement (letters), change versus sham, mean: 3.5 letters
[1]; 6 μg, early stage subjects (baseline BCVA >55 letters), 24 weeks
  BCVA improvement (letters), change versus sham, mean: 2.9 letters
[1]; 6 μg, week 16, n = 41
  BCVA (letters): any loss from baseline, (%): (32.5) %
  BCVA: ≥5 letter loss from baseline, (%): (20.0) %
  BCVA: ≥10 letter loss from baseline, (%): (5.0) %
  BCVA: ≥15 letter loss from baseline, (%): (0) %
[1]; 6 μg, p-value 0.0421
  BCVA (letters): any loss from baseline, Diff. v. sham: −22.0
[1]; 6 μg, p-value 0.0516
  BCVA: ≥10 letter loss from baseline, Diff. v. sham: −15.5
[1]; 6 μg, p-value 0.0565
  BCVA: ≥15 letter loss from baseline, Diff. v. sham: −11.4
[1]; 6 μg, p-value 0.4344
  BCVA: ≥5 letter loss from baseline, Diff. v. sham: −7.3
[1]; baseline BCVA greater than 55 letters, every measurement taken
  Average improvement in BCVA score of early stage patients versus overall population (in words): consistently better average improvement in BCVA score than the overall average population score
[1]; subjects that had previously had anti-VEGF treatment
  Progression of DME or impaired visual acuity (in words): slowing of the progression
[2]
  Mean improvement in visual acuity: 5.5 letters
